Test results: article PMC12171880, “Selectivity and Safety Characterization of a Xanthine–Imidazothiazole Lead Structure: a Novel Tryptophan Hydroxylase Inhibitor of Peripheral Serotonin Synthesis” (ACS Pharmacology & Translational Science, 2025)

What was measured:
Sprague–Dawley rats [1] = assay: Dose-range finding study in rats, in-life phase; format: in vivo, rat
Protocol: The in-life phase of the experiment was performed at Pharmacelsus GmbH (Saarbrücken, Germany) and enrolled 24 Sprague–Dawley rats (12 males and 12 females) provided by Janvier Laboratories (France); the animals were 7 weeks old at delivery. Inclusion criteria (sex, appropriate body weight, and absence of behavioral changes) were established prior to the study’s commencement. The animals were housed in a temperature-controlled room (20–24 °C) and maintained in a 12 h light/12 h dark cycle. Before the start of the study, the animals underwent a six-day acclimation period. Food and water were available ad libitum throughout the duration of the study.
(§1) TPT-004 was formulated in 0.5% (w/v) CMC-Na in water and administered by oral gavage (PO) twice daily (b.i.d.) with a 12 h interval to the treatment groups (3 male and 3 female Sprague–Dawley rats each) for 8 days (15 successive applications). Rats were dosed with 10, 45, and 200 mg/kg, i.e., daily doses of 20, 90, and 400 mg/kg. In addition, a control group was dosed at the same frequency as the vehicle (0.5% CMC-Na).
Blood samples were collected as described below. The animal sacrifice (exsanguination) was performed on day 8. During the necropsy, the selected organs were collected, weighed, and shipped to a third-party laboratory for histopathological examination (as described below).

[2] = tested on: 97 targets (receptors, enzymes, and ion channels); assay: Eurofins Diversity Panel, 97 binding, enzyme and uptake assays; settings: 10 μM
Protocol: TPT-004 was evaluated at a concentration of 10 μM in a total of 97 binding, enzyme, and uptake assays (Diversity Panel) by Eurofins Cerep (Celle l’Evescault, France). Compound binding was calculated as % inhibition of the binding of a ligand specific to each target. The compound enzyme inhibition effect was calculated as percentage inhibition of the control enzyme activity. Results showing an inhibition (or stimulation for assays run under basal conditions) of >50% are considered to represent significant effects of the test compounds. Results showing an inhibition (or stimulation) between 25% and 50% are indicative of weak to moderate effects. Results showing an inhibition (or stimulation) lower than 25% are not considered significant and are mostly attributable to variability in the signal around the control level. […] In each experiment, and if applicable, the respective reference compound was tested concurrently with TPT-004, and the data were compared with historical values determined at Eurofins. […]
The results are expressed as a percent of control-specific binding: measured specific binding/control specific binding×100 and as a percent inhibition of control-specific binding: 100−(measured specific binding/control specific binding×100) obtained in the presence of TPT-004. […]

Sprague–Dawley rats [3] = assay: Dose-range finding study in rats, hematology; format: in vivo, rat; set-up: red cell distribution width (RDW): unit not given here; settings: for ERY / HCT / HGB / LEU / LYM / LYM (%) / MCH / MCHC / MCV / MON / MON (%) / MPV / NEU / NEU (%) / PCT / PDWc / PDWs / PLT / RDWc / RDWs: day 8
Protocol: as §1
A blood sample of 100 μL was obtained from each rat by puncturing one of the lateral tail veins under short isoflurane anesthesia. Blood was collected in tubes containing lithium heparin and gently mixed. After centrifugation (10 min at 3000g, 4 °C), plasma was separated and stored at −20 °C until LC-MS analysis. In addition, on day 8, the rats were exsanguinated by cardiac puncture under isoflurane anesthesia. A volume of 100 μL of blood (K3-EDTA) was used for immediate cell blood count, while the rest of the blood was mixed with lithium heparin and centrifuged to generate plasma for clinical chemistry analysis.

[4] = 10, 45, or 200 mg/kg BID PO, 8 days
[5] = 10, 45 or 200 mg/kg BID PO, D1 to D8

CCn1c(=O)[nH]c(=O)c2c1nc(Cc1cn3cc(C)sc3n1)n2CC1COC1 [TPT-004]
clinical signs (Sprague–Dawley rats [1]; [4]): None of the rats exhibited clinical signs
survival (Sprague–Dawley rats [1]; [4]): All of the animals survived
body weight (Sprague–Dawley rats [1]; [5]): increased normally
food consumption (Sprague–Dawley rats [1]; [5]): in the same range as that of the control group
significant effects (more than 50% inhibition or stimulation) among 97 targets [2]: a significant effect was observed only for the rat homolog of TH
ERY (Sprague–Dawley rats [3]; 10 mg/kg PO BID): 8.15e+12 L⁻¹
HCT (Sprague–Dawley rats [3]; 10 mg/kg PO BID): 49.64%
HGB (Sprague–Dawley rats [3]; 10 mg/kg PO BID): 13.9 g/dL
LEU (Sprague–Dawley rats [3]; 10 mg/kg PO BID): 1.308e+10 L⁻¹
LYM (Sprague–Dawley rats [3]; 10 mg/kg PO BID): 1.091e+10 L⁻¹
LYM (%) (Sprague–Dawley rats [3]; 10 mg/kg PO BID): 82.8%
MCH (Sprague–Dawley rats [3]; 10 mg/kg PO BID): 17.1 pg
MCHC (Sprague–Dawley rats [3]; 10 mg/kg PO BID): 28.0 g/dL
MCV (Sprague–Dawley rats [3]; 10 mg/kg PO BID): 61 fL
MON (Sprague–Dawley rats [3]; 10 mg/kg PO BID): 5.8e+08 L⁻¹
MON (%) (Sprague–Dawley rats [3]; 10 mg/kg PO BID): 4.0%
MPV (Sprague–Dawley rats [3]; 10 mg/kg PO BID): 8.2 fL
NEU (Sprague–Dawley rats [3]; 10 mg/kg PO BID): 1.59e+09 L⁻¹
NEU (%) (Sprague–Dawley rats [3]; 10 mg/kg PO BID): 13.3%
PCT (Sprague–Dawley rats [3]; 10 mg/kg PO BID): 0.15%
PDWc (Sprague–Dawley rats [3]; 10 mg/kg PO BID): 33.7%
PDWs (Sprague–Dawley rats [3]; 10 mg/kg PO BID): 12.3 fL
PLT (Sprague–Dawley rats [3]; 10 mg/kg PO BID): 1.69e+11 L⁻¹
RDWc (Sprague–Dawley rats [3]; 10 mg/kg PO BID): 16.4%
RDWs (Sprague–Dawley rats [3]; 10 mg/kg PO BID): 37.6 fL
ERY (Sprague–Dawley rats [3]; 45 mg/kg PO BID): 8.12e+12 L⁻¹
HCT (Sprague–Dawley rats [3]; 45 mg/kg PO BID): 48.67%
HGB (Sprague–Dawley rats [3]; 45 mg/kg PO BID): 14.0 g/dL
LEU (Sprague–Dawley rats [3]; 45 mg/kg PO BID): 1.748e+10 L⁻¹
LYM (Sprague–Dawley rats [3]; 45 mg/kg PO BID): 1.446e+10 L⁻¹
LYM (%) (Sprague–Dawley rats [3]; 45 mg/kg PO BID): 82.7%
MCH (Sprague–Dawley rats [3]; 45 mg/kg PO BID): 17.3 pg
MCHC (Sprague–Dawley rats [3]; 45 mg/kg PO BID): 28.8 g/dL
MCV (Sprague–Dawley rats [3]; 45 mg/kg PO BID): 60 fL
MON (Sprague–Dawley rats [3]; 45 mg/kg PO BID): 1.07e+09 L⁻¹
MON (%) (Sprague–Dawley rats [3]; 45 mg/kg PO BID): 6.2%
MPV (Sprague–Dawley rats [3]; 45 mg/kg PO BID): 8.3 fL
NEU (Sprague–Dawley rats [3]; 45 mg/kg PO BID): 1.95e+09 L⁻¹
NEU (%) (Sprague–Dawley rats [3]; 45 mg/kg PO BID): 11.1%
PCT (Sprague–Dawley rats [3]; 45 mg/kg PO BID): 0.08%
PDWc (Sprague–Dawley rats [3]; 45 mg/kg PO BID): 36.1%
PDWs (Sprague–Dawley rats [3]; 45 mg/kg PO BID): 13.9 fL
PLT (Sprague–Dawley rats [3]; 45 mg/kg PO BID): 1.04e+11 L⁻¹
RDWc (Sprague–Dawley rats [3]; 45 mg/kg PO BID): 17.2%
RDWs (Sprague–Dawley rats [3]; 45 mg/kg PO BID): 38.7 fL
red cell distribution width (RDW) (Sprague–Dawley rats [3]; 200 mg/kg BID, vehicle 16.4 ± 0.8, p = 0.0109): 19.3 ± 1.6
ERY (Sprague–Dawley rats [3]; 200 mg/kg PO BID): 8.03e+12 L⁻¹
HCT (Sprague–Dawley rats [3]; 200 mg/kg PO BID): 45.70%
HGB (Sprague–Dawley rats [3]; 200 mg/kg PO BID): 13.1 g/dL
LEU (Sprague–Dawley rats [3]; 200 mg/kg PO BID): 1.534e+10 L⁻¹
LYM (Sprague–Dawley rats [3]; 200 mg/kg PO BID): 1.263e+10 L⁻¹
LYM (%) (Sprague–Dawley rats [3]; 200 mg/kg PO BID): 82.9%
MCH (Sprague–Dawley rats [3]; 200 mg/kg PO BID): 16.4 pg
MCHC (Sprague–Dawley rats [3]; 200 mg/kg PO BID): 28.7 g/dL
MCV (Sprague–Dawley rats [3]; 200 mg/kg PO BID): 57 fL
MON (Sprague–Dawley rats [3]; 200 mg/kg PO BID): 7.4e+08 L⁻¹
MON (%) (Sprague–Dawley rats [3]; 200 mg/kg PO BID): 4.8%
MPV (Sprague–Dawley rats [3]; 200 mg/kg PO BID): 8.3 fL
NEU (Sprague–Dawley rats [3]; 200 mg/kg PO BID): 1.97e+09 L⁻¹
NEU (%) (Sprague–Dawley rats [3]; 200 mg/kg PO BID): 12.3%
PCT (Sprague–Dawley rats [3]; 200 mg/kg PO BID): 0.14%
PDWc (Sprague–Dawley rats [3]; 200 mg/kg PO BID): 35.8%
PDWs (Sprague–Dawley rats [3]; 200 mg/kg PO BID): 13.7 fL
PLT (Sprague–Dawley rats [3]; 200 mg/kg PO BID): 1.79e+11 L⁻¹
RDWc (Sprague–Dawley rats [3]; 200 mg/kg PO BID): 19.3%
RDWs (Sprague–Dawley rats [3]; 200 mg/kg PO BID): 40.8 fL
hematology parameters, overall (Sprague–Dawley rats [3]; [4]): did not alter the hematology parameters
number of platelets (PLT), differences to control (Sprague–Dawley rats [3]; [4]): these differences were not significant
